Columns and labels:
surinam grass = test: Test B pre/postemergence surinam grass; assay type: in vivo, Brachiaria decumbens
In short: (§1)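 Herbicidal effect was estimated by eye on a ten-point control scale after plants spent twelve to sixteen days in a greenhouse following soil or foliar treatment. Foliar sprays targeted plants at one to four leaves; all doses were formulated in a non-phytotoxic solvent with surfactant.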

corn = test: Test B pre/postemergence corn; assay type: in vivo, Zea mays
In short: as §1

wild oat = test: Test B pre/postemergence wild oat; assay type: in vivo, Avena fatua
In short: as §1

smallflower flatsedge = test: Test B flood test smallflower flatsedge; assay type: in vivo, Cyperus difformis
In short: (§2)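 Flood test on plants grown to the 2-leaf stage; treated plants kept in greenhouse twelve to sixteen days, then visually rated against controls on a 0 (no effect) to 10 (complete control) scale.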

cocklebur = test: Test B pre/postemergence cocklebur; assay type: in vivo, Xanthium strumarium
In short: as §1

crabgrass = test: Test B pre/postemergence crabgrass; assay type: in vivo, Digitaria sanguinalis
In short: as §1

giant foxtail = test: Test B pre/postemergence giant foxtail; assay type: in vivo, Setaria faberii
In short: as §1

sugar beet = test: Test B pre/postemergence sugar beet; assay type: in vivo, Beta vulgaris
In short: as §1

blackgrass = test: Test B pre/postemergence blackgrass; assay type: in vivo, Alopecurus myosuroides
In short: as §1

rice = test: Test B flood test rice; assay type: in vivo, Oryza sativa
In short: as §2

duck salad = test: Test B flood test duck salad; assay type: in vivo, Heteranthera limosa
In short: as §2

pigweed = test: Test B pre/postemergence pigweed; assay type: in vivo, Amaranthus retroflexus
In short: as §1

purple nutsedge = test: Test B pre/postemergence purple nutsedge; assay type: in vivo, Cyperus rotundus
In short: as §1

morningglory = test: Test B pre/postemergence morningglory; assay type: in vivo, Ipomoea hederacea
In short: as §1

soybean = test: Test B pre/postemergence soybean; assay type: in vivo, Glycine max
In short: as §1

bedstraw = test: Test B pre/postemergence bedstraw; assay type: in vivo, Galium aparine; details: Postemergence, Rate 125 g/ha; scale of 0 to 10 where 0 is no effect and 10 is complete control
In short: as §1

[1] = Postemergence, Rate 62 g/ha, scale 0 to 10, 0 is no effect, 10 is complete control
[2] = Postemergence, Rate 125 g/ha, scale of 0 to 10 where 0 is no effect and 10 is complete control
[3] = Postemergence, Rate 250 g/ha, scale of 0 to 10, 0 is no effect, 10 is complete control
[4] = Preemergence, Rate 62 g/ha, scale of 0 to 10 where 0 is no effect and 10 is complete control
[5] = Preemergence, Rate 125 g/ha, scale of 0 to 10 where 0 is no effect and 10 is complete control
[6] = Preemergence, Rate 250 g/ha, scale 0 to 10 (0 no effect, 10 complete control)
[7] = Preemergence, Rate 500 g/ha, scale of 0 to 10 where 0 is no effect and 10 is complete control
[8] = Rate 500 g/ha, Postemergence, scale 0 to 10, 0 is no effect, 10 is complete control
[9] = Rate 62 g/ha, flood test species, Pre-emergence, visual evaluation after twelve to sixteen days
[10] = Rate 125 g/ha, under heading Pre-emergence, flood test species, visual evaluation after twelve to sixteen days
[11] = Rate 250 g/ha, Pre-emergence (flood test species), scale 0 to 10, 0 is no effect, 10 is complete control
[12] = Rate 500 g/ha, Pre-emergence section of Table B, 0 to 10 scale (0 no effect, 10 complete control)

SMILES: CC(C)N(C(=O)n1oc(=O)n(CCF)c1=O)c1ccc(Cl)cc1 [Compound 668]
- Plant response rating, B. signalgrass (surinam grass; [1]): 1
- Plant response rating, B. signalgrass (surinam grass; [2]): 2
- B. signalgrass plant response rating (surinam grass; [3]): 4
- B. signalgrass plant response rating (surinam grass; [4]): 5
- B. signalgrass plant response rating (surinam grass; [5]): 8
- Plant response rating, B. signalgrass (surinam grass; [6]): 8
- Plant response rating, B. signalgrass (surinam grass; [7]): 9
- B. signalgrass plant response rating (surinam grass; [8]): 5
- Plant response rating, Corn (corn; [1]): 0
- Corn plant response rating (corn; [2]): 0
- Corn plant response rating (corn; [3]): 3
- Corn plant response rating (corn; [4]): 0
- Plant response rating, Corn (corn; [6]): 4
- Plant response rating, Corn (corn; [7]): 9
- Corn plant response rating (corn; [8]): 3
- Plant response rating, Wild oats (wild oat; [1]): 0
- Wild oats plant response rating (wild oat; [2]): 0
- Wild oats plant response rating (wild oat; [4]): 2
- Wild oats plant response rating (wild oat; [5]): 7
- Plant response rating, Wild oats (wild oat; [6]): 8
- Plant response rating, Wild oats (wild oat; [7]): 9
- Wild oats plant response rating (wild oat; [8]): 0
- Plant response rating, S. Flatsedge (0 to 10 scale, 0 is no effect, 10 is complete control) (smallflower flatsedge; [9]): 0
- S. Flatsedge plant response rating (0 to 10 scale, 0 is no effect, 10 is complete control) (smallflower flatsedge; [10]): 0
- S. Flatsedge plant response rating (smallflower flatsedge; [11]): 0
- S. Flatsedge plant response rating (smallflower flatsedge; [12]): 0
- Plant response rating, Cocklebur (cocklebur; [1]): 0
- Cocklebur plant response rating (cocklebur; [2]): 0
- Cocklebur plant response rating (cocklebur; [3]): 2
- Cocklebur plant response rating (cocklebur; [4]): 0
- Cocklebur plant response rating (cocklebur; [5]): 0
- Plant response rating, Cocklebur (cocklebur; [6]): 0
- Plant response rating, Cocklebur (cocklebur; [7]): 0
- Cocklebur plant response rating (cocklebur; [8]): 2
- Plant response rating, Crabgrass (crabgrass; [1]): 6
- Crabgrass plant response rating (crabgrass; [2]): 9
- Crabgrass plant response rating (crabgrass; [3]): 9
- Crabgrass plant response rating (crabgrass; [4]): 8
- Crabgrass plant response rating (crabgrass; [5]): 8
- Plant response rating, Crabgrass (crabgrass; [6]): 8
- Plant response rating, Crabgrass (crabgrass; [7]): 8
- Crabgrass plant response rating (crabgrass; [8]): 10
- Plant response rating, Giant foxtail (giant foxtail; [1]): 8
- Giant foxtail plant response rating (giant foxtail; [2]): 9
- Giant foxtail plant response rating (giant foxtail; [3]): 9
- Giant foxtail plant response rating (giant foxtail; [4]): 9
- Giant foxtail plant response rating (giant foxtail; [5]): 9
- Plant response rating, Giant foxtail (giant foxtail; [6]): 9
- Plant response rating, Giant foxtail (giant foxtail; [7]): 10
- Giant foxtail plant response rating (giant foxtail; [8]): 9
- Plant response rating, Sugarbeets (sugar beet; [1]): 0
- Sugarbeets plant response rating (sugar beet; [2]): 0
- Sugarbeets plant response rating (sugar beet; [4]): 0
- Sugarbeets plant response rating (sugar beet; [5]): 6
- Plant response rating, Sugarbeets (sugar beet; [6]): 6
- Plant response rating, Sugarbeets (sugar beet; [7]): 9
- Sugarbeets plant response rating (sugar beet; [8]): 6
- Plant response rating, Blackgrass (blackgrass; [1]): 7
- Blackgrass plant response rating (blackgrass; [2]): 8
- Blackgrass plant response rating (blackgrass; [3]): 8
- Blackgrass plant response rating (blackgrass; [4]): 6
- Blackgrass plant response rating (blackgrass; [5]): 8
- Plant response rating, Blackgrass (blackgrass; [6]): 10
- Plant response rating, Blackgrass (blackgrass; [7]): 10
- Blackgrass plant response rating (blackgrass; [8]): 9
- Plant response rating, Rice (0 to 10 scale, 0 is no effect, 10 is complete control) (rice; [9]): 0
- Rice plant response rating (0 to 10 scale, 0 is no effect, 10 is complete control) (rice; [10]): 0
- Rice plant response rating (rice; [11]): 0
- Rice plant response rating (rice; [12]): 0
- Plant response rating, Ducksalad (0 to 10 scale, 0 is no effect, 10 is complete control) (duck salad; [9]): 0
- Ducksalad plant response rating (0 to 10 scale, 0 is no effect, 10 is complete control) (duck salad; [10]): 0
- Ducksalad plant response rating (duck salad; [11]): 0
- Ducksalad plant response rating (duck salad; [12]): 0
- Plant response rating, Redroot pigweed (pigweed; [1]): 3
- Redroot pigweed plant response rating (pigweed; [2]): 5
- Redroot pigweed plant response rating (pigweed; [4]): 0
- Redroot pigweed plant response rating (pigweed; [5]): 7
- Plant response rating, Redroot pigweed (pigweed; [6]): 10
- Plant response rating, Redroot pigweed (pigweed; [7]): 10
- Redroot pigweed plant response rating (pigweed; [8]): 7
- Plant response rating, Nutsedge (purple nutsedge; [1]): 0
- Nutsedge plant response rating (purple nutsedge; [2]): 0
- Nutsedge plant response rating (purple nutsedge; [4]): 0
- Nutsedge plant response rating (purple nutsedge; [5]): 0
- Plant response rating, Nutsedge (purple nutsedge; [6]): 0
- Plant response rating, Nutsedge (purple nutsedge; [7]): 0
- Nutsedge plant response rating (purple nutsedge; [8]): 0
- Plant response rating, Morningglory (morningglory; [1]): 1
- Morningglory plant response rating (morningglory; [2]): 3
- Morningglory plant response rating (morningglory; [3]): 4
- Morningglory plant response rating (morningglory; [4]): 0
- Morningglory plant response rating (morningglory; [5]): 0
- Plant response rating, Morningglory (morningglory; [6]): 0
- Plant response rating, Morningglory (morningglory; [7]): 5
- Morningglory plant response rating (morningglory; [8]): 4
- Plant response rating, Soybean (soybean; [1]): 2
- Soybean plant response rating (soybean; [2]): 2
- Soybean plant response rating (soybean; [4]): 0
- Soybean plant response rating (soybean; [5]): 1
- Plant response rating, Soybean (soybean; [6]): 1
- Plant response rating, Soybean (soybean; [7]): 6
- Soybean plant response rating (soybean; [8]): 6
- Bedstraw plant response rating (bedstraw): 0
